Among the data in ChEMBL document CHEMBL1122789, “Synthesis and biological activity of structural analogues of the anticancer benzophenanthridine alkaloid nitidine chloride” (1984) are T/C, Survival and Weight change values, retold here.

Common to all, as to type: functional, Mus musculus
Experiment [1] concerns Lewis lung carcinoma cell line. Put plainly: Evaluated for anticancer activity in survival tumor system Lewis lung (LL) carcinoma at dose 50 mg/kg.
The test system of experiment [2] is Lewis lung carcinoma cell line. In words: Evaluated for anticancer activity in survival tumor system Lewis lung (LL) carcinoma at a dose of 50 mg/kg;Number of Tested survived/number of control survived (10/10).
The test system of experiment [3] is P388. In words: Evaluated for anticancer activity in survival tumor system P388 lymphocytic leukemia at dose 50 mg/kg.
In experiment [4] the test system is B16. In words: Evaluated for anticancer activity in survival tumor system B16 melanocarcinoma at a dose of 6.25 mg/kg, value was reported as weight difference.

Consider `COc1cc2c[n+](C)c3c(c2cc1OC)Cc1cc2c(cc1-3)OCO2.[Cl-]`, for which the T/C in experiment [1] is listed as 119%; in experiment [3], 149%. The compound further displayed a Survival in experiment [2] of 10. Moreover, in experiment [4], the Weight change was -0.5.

A word on the T/C: it is the result in the treated group divided by that in the control group, in per cent.
